# Measured values taken from article PMC3427785 (The Journal of organic chemistry, 2012).
# Read-outs that look alike come from different tables or passages of the source.
# Legend:
# [1] = system: 1A9-PTX22; experiment: Antiproliferative activity; type: cell-based, human; conditions: read-out: GI50, PTX22; paclitaxel-resistant ovarian 1A9-PTX22; four days
# [2] = system: HCT116 p53 knockout cells; type: cell-based, human; conditions: read-out: GI50, p53KO, four days
# [3] = system: human ovarian cancer 1A9 cells; experiment: Antiproliferative activity; type: cell-based; conditions: read-out: GI50, 1A9; ovarian 1A9; four days
# [4] = system: 1A9-PTX10; experiment: Antiproliferative activity; type: cell-based, human
# [5] = system: colorectal carcinoma HCT116 cells; experiment: Antiproliferative activity; type: cell-based, human; conditions: read-out: GI50, HCT116, four days
# [6] = system: HEL cells; experiment: HEL cell growth inhibition; type: cell-based, human; conditions: read-out: HEL cell effects, cell growth (IC50); concentration required to reduce cell growth by 50%
# [7] = system: cytomegalovirus (CMV); experiment: Anti-CMV activity in HEL cells as summarised in text; type: cell-based
# [8] = system: HeLa and HEL cell cultures
# [9] = system: vesicular stomatitis virus (VSV); type: cell-based; conditions: human embryonic lung (HEL) fibroblast cell cultures
# [10] = system: vesicular stomatitis virus (VSV); type: cell-based; conditions: read-out: anti-VSV activity; human cervix carcinoma HeLa cell cultures
# [11] = system: cytomegalovirus (CMV) Davis strain; experiment: Anti-CMV activity; type: cell-based; conditions: read-out: anti-CMV activity EC50, Davis strain
# [12] = system: cytomegalovirus (CMV) AD-169 strain; experiment: Anti-CMV activity; type: cell-based; conditions: read-out: anti-CMV activity EC50, AD-169 strain
# [13] = system: green monkey kidney Vero
# [14] = system: canine kidney MDCK
# [15] = system: feline kidney CRFK
# [16] = read-out: GI50, PTX10, paclitaxel-resistant ovarian 1A9-PTX10, four days
compound,measurement,setting,value
"2-[4-(4-Fluorophenyl)-1,2,3-triazol-1H-yl]inosine [Compound 24]",GI50,[1],31 µM
same,GI50,[2],> 50 µM
same,GI50,[3],34 µM
same,GI50,[4]; [16],> 50 µM
same,GI50,[5],> 50 µM
"2-[4-(4-Methoxyphenyl)-1,2,3-triazol-1H-yl]inosine [Compound 19]",GI50,[1],8.56 µM
same,GI50,[2],> 50 µM
same,GI50,[3],29.5 µM
same,GI50,[4]; [16],> 50 µM
same,GI50,[5],> 50 µM
same,IC50,[6],> 230 µM
"2-[4-(Ferrocenyl)-1,2,3-triazol-1H-yl]inosine [Compound 22]",GI50,[1],12.9 µM
same,GI50,[2],> 50 µM
same,GI50,[3],29.7 µM
same,GI50,[4]; [16],> 50 µM
same,GI50,[5],> 50 µM
same,IC50,[6],123 µM
same,activity against cytomegalovirus (in words),[7]; HEL cells,marginal activity
"2-[4-(Hydroxymethyl)-1,2,3-triazol-1H-yl]inosine [Compound 20]",GI50,[1],3.53 µM
same,GI50,[2],42.6 µM
same,GI50,[3],20.4 µM
same,GI50,[4]; [16],> 50 µM
same,GI50,[5],> 50 µM
"OC[C@H]1O[C@@H](n2cnc3c(NCc4ccccc4)nc(-n4cc(-c5ccccc5)nn4)nc32)[C@H](O)[C@@H]1O [Compound 35, 6-(N-Benzyl)-2-[4-(phenyl)-1,2,3-triazol-1H-yl]adenosine]",GI50,[1],24.5 µM
same,GI50,[2],> 50 µM
same,GI50,[3],5 µM
same,GI50,[4]; [16],> 50 µM
same,GI50,[5],43.6 µM
"OC[C@H]1O[C@@H](n2cnc3c(O)nc(-n4cc(-c5ccccc5)nn4)nc32)[C@H](O)[C@@H]1O [Compound 17, 2-[4-(Phenyl)-1,2,3-triazol-1H-yl]inosine]",GI50,[1],4.76 µM
same,GI50,[2],> 50 µM
same,toxicity observed,[8],100 to 240 µM
same,GI50,[3],22.8 µM
same,GI50,[4]; [16],> 50 µM
same,anti-VSV activity (in words),[9],could not be confirmed
same,GI50,[5],> 50 µM
same,EC50,[10],27 ± 2.4 µM
"2-[4-(4-Methylphenyl)-1,2,3-triazol-1H-yl]inosine [Compound 18]",GI50,[1],13.4 µM
same,GI50,[2],> 50 µM
same,GI50,[3],38 µM
same,GI50,[4]; [16],> 50 µM
same,GI50,[5],> 50 µM
same,IC50,[6],≥ 240 µM
same,activity against cytomegalovirus (in words),[7]; HEL cells,marginal activity
"O=C1c2ccccc2C(=O)N1Cc1cn(-c2nc(O)c3ncn([C@H]4C[C@H](O)[C@@H](CO)O4)c3n2)nn1 [Compound 28, 2-[4-(N-Phthalimidomethyl)-1,2,3-triazol-1H-yl]-2′-deoxyinosine]",GI50,[1],32.2 µM
same,GI50,[2],> 50 µM
same,EC50,[11],> 210 µM
same,GI50,[3],49.6 µM
same,GI50,[4]; [16],> 50 µM
same,GI50,[5],> 50 µM
same,EC50,[12],> 210 µM
"COc1ccc(-c2cn(-c3nc(O)c4ncn([C@H]5C[C@H](O)[C@@H](CO)O5)c4n3)nn2)cc1 [Compound 26, 2-[4-(4-Methoxyphenyl)-1,2,3-triazol-1H-yl]-2′-deoxyinosine]",GI50,[1],15.7 µM
same,GI50,[2],> 50 µM
same,EC50,[11],> 240 µM
same,GI50,[3],37.2 µM
same,GI50,[4]; [16],> 50 µM
same,GI50,[5],> 50 µM
same,EC50,[12],> 240 µM
"CC(=O)O[C@H]1C(=O)[C@@]2(C)[C@H]([C@H](OC(=O)c3ccccc3)[C@]3(O)C[C@H](OC(=O)[C@H](O)[C@@H](NC(=O)c4ccccc4)c4ccccc4)C(C)=C1C3(C)C)[C@]1(OC(C)=O)CO[C@@H]1C[C@@H]2O [paclitaxel, reference compound]",GI50,"[4]; Homo sapiens, 1A9/ptx-10, read-out: GI50, PTX10",0.079 µM
"OC[C@H]1O[C@@H](n2cnc3c(O)nc(-n4cc(-c5ccccc5)nn4)nc32)C[C@@H]1O [Compound 25, 2-[4-(Phenyl)-1,2,3-triazol-1H-yl]-2′-deoxyinosine]",GI50,[1],14.8 µM
same,GI50,[2],> 50 µM
same,EC50,[11],158 µM
same,GI50,[3],31 µM
same,GI50,[4]; [16],> 50 µM
same,GI50,[5],> 50 µM
same,IC50,[6],188 µM
same,activity against cytomegalovirus (in words),[7],marginal activity
same,EC50,[12],≥ 250 µM
"OCc1cn(-c2nc(O)c3ncn([C@H]4C[C@H](O)[C@@H](CO)O4)c3n2)nn1 [Compound 27, 2-[4-(Hydroxymethyl)-1,2,3-triazol-1H-yl]-2′-deoxyinosine]",GI50,[1],32.9 µM
same,GI50,[2],> 50 µM
same,EC50,[11],> 290 µM
same,GI50,[3],49.4 µM
same,GI50,[4]; [16],> 50 µM
same,GI50,[5],> 50 µM
same,EC50,[12],> 290 µM
"6-(Morpholin-4-yl)-2-(4-phenyl-1,2,3-triazol-1H-yl)-9-(β-D-ribofuranosyl)purine [Compound 34]",GI50,[1],0.95 µM
same,GI50,[2],10.4 µM
same,minimum detectable morphology-altering (cytotoxic) concentration (MCC),[13],210 μM
same,minimum detectable morphology-altering (cytotoxic) concentration (MCC),[14],8.3 μM
same,GI50,[3],0.18 µM
same,minimum detectable morphology-altering (cytotoxic) concentration (MCC),[15],83 μM
same,GI50,[4]; [16],11.7 µM
same,GI50,[5],3.7 µM
"CCCCc1cn(-c2nc(O)c3ncn([C@H]4C[C@H](O)[C@@H](CO)O4)c3n2)nn1 [Compound 30, 2-(4-n-Butyl-1,2,3-triazol-1H-yl)-2′-deoxyinosine]",GI50,[1],26.9 µM
same,GI50,[2],> 50 µM
same,EC50,[11],> 270 µM
same,GI50,[3],46.1 µM
same,GI50,[4]; [16],> 50 µM
same,GI50,[5],> 50 µM
same,EC50,[12],> 270 µM
"OC[C@H]1O[C@@H](n2cnc3c(O)nc(-n4cc(-[c-]5cccc5)nn4)nc32)C[C@@H]1O.[Fe+2].c1cc[cH-]c1 [Compound 29, 2-[4-(Ferrocenyl)-1,2,3-triazol-1H-yl]-2′-deoxyinosine]",GI50,[1],18 µM
same,GI50,[2],> 50 µM
same,EC50,[11],≥ 200 µM
same,GI50,[3],41.6 µM
same,GI50,[4]; [16],> 50 µM
same,GI50,[5],> 50 µM
same,IC50,[6],> 200 µM
same,EC50,[12],≥ 200 µM
"2-(4-n-Butyl-1,2,3-triazol-1H-yl)inosine [Compound 23]",GI50,[1],28.1 µM
same,GI50,[2],> 50 µM
same,GI50,[3],37 µM
same,GI50,[4]; [16],> 50 µM
same,GI50,[5],> 50 µM
same,IC50,[6],> 250 µM
same,activity against cytomegalovirus (in words),[7]; HEL cells,somewhat more pronounced
"2-[4-(N-Phthalimidomethyl)-1,2,3-triazol-1H-yl]inosine [Compound 21]",GI50,[1],14.1 µM
same,GI50,[2],> 50 µM
same,GI50,[3],6.32 µM
same,GI50,[4]; [16],> 50 µM
same,GI50,[5],> 50 µM
same,IC50,[6],> 200 µM
